# Assay results reported in patent US20220112187A1, “PYRAZOLOPYRIDINE AMINE COMPOUNDS FOR THE TREATMENT OF AUTOIMMUNE DISEASE” (Hoffmann-La Roche Inc., priority 2018, published 2022).
# Target: T1, human TLR8 (Homo sapiens, UniProt Q9NR97)
# T1 sequence (Q9NR97 27-1041): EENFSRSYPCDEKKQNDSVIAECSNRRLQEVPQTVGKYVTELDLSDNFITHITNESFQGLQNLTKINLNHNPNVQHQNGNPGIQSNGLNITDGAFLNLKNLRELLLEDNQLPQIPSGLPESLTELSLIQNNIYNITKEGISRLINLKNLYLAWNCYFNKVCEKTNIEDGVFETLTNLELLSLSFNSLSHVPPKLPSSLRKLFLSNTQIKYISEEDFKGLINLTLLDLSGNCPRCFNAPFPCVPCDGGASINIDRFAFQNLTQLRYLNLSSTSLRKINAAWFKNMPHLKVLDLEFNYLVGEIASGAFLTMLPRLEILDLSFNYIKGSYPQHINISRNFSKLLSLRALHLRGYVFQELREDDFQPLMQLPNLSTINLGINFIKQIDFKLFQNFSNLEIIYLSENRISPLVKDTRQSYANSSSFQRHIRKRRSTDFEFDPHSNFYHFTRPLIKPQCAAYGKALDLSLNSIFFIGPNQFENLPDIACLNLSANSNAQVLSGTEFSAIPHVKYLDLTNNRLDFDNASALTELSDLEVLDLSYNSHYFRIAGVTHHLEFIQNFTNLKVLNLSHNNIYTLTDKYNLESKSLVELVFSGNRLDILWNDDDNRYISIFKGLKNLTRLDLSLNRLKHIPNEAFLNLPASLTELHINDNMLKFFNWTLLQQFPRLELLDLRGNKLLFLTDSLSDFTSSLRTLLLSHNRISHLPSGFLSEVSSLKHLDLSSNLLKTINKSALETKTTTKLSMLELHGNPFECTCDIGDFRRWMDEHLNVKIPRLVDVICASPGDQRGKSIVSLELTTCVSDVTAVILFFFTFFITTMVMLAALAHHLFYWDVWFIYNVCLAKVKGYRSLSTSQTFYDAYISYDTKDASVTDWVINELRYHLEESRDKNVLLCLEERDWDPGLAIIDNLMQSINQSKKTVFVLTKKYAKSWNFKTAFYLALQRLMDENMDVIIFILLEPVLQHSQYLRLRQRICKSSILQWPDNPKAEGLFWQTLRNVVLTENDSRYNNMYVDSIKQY
# Test: HEK293-Blue-hTLR-8 cells assay (SEAP reporter, R848 stimulation)
# Format: cell-based
# Details: HEK293-Blue-hTLR8 cells, R848 ligand, 20 hrs incubation
# Source text: A stable HEK293-Blue-hTLR-8 cell line was purchased from InvivoGen (Cat. #: hkb-htlr8, San Diego, Calif., USA). These cells were originally designed for studying the stimulation of human TLR8 by monitoring the activation of NF-κB. A SEAP (secreted embryonic alkaline phosphatase) reporter gene was placed under the control of the IFN-β minimal promoter fused to five NF-κB and AP-1-binding sites. The SEAP was induced by activating NF-κB and AP-1 via stimulating HEK-Blue hTLR8 cells with TLR8 ligands. Therefore the reporter expression was declined by TLR8 antagonist under the stimulation of a ligand, such as R848, for incubation of 20 hrs. The cell culture supernatant SEAP reporter activity was determined using QUANTI-Blue™ kit (Cat. #: rep-qb1, Invivogen, San Diego, Ca, USA) at a wavelength of 640 nm, a detection medium that turns purple or blue in the presence of alkaline phosphatase.
# HEK293-Blue-hTLR8 cells were incubated at a density of 250,000˜450,000 cells/mL in a volume of 170 μL in a 96-well plate in Dulbecco's Modified Eagle's medium (DMEM) containing 4.5 g/L glucose, 50 U/mL penicillin, […], […], 2 mM L-glutamine, 10% (v/v) heat-inactivated fetal bovine serum with addition of 20 μL test compound in a serial dilution in the presence of final DMSO at 1% and 10 μL of 60 uM R848 in above DMEM, perform incubation under 37° C. in a CO2 incubator for 20 hrs. Then 20 μL of the supernatant from each well was incubated with 180 μL Quanti-blue substrate solution at 37° C. for 2 hrs and the absorbance was read at 620˜655 nm using a spectrophotometer. The signalling pathway that TLR8 activation leads to downstream NF-κB activation has been widely accepted, and therefore similar reporter assay was modified for evaluating TLR8 antagonist.
row,SMILES,IC50 [nM]
1,"C[C@@H]1CN(c2ccc(C#N)n3nccc23)C[C@H](CN2C[C@H]3CC[C@@H](N(C)C)[C@H]3C2)O1 (racemic) [Example 75, 4-[(2S,6R)-2-[[4-(dimethylamino)-3,3a,4,5,6,6a-hexahydro-1H-cyclopenta[c]pyrrol-2-yl]methyl]-6-methyl-morpholin-4-yl]pyrazolo[1,5-a]pyridine-7-carbonitrile]",600
2,"CC1CNCCN1C[C@H]1CN(c2ccc(C#N)n3nccc23)C[C@@H](C)O1 (single isomer, unassigned) [Example 50A]",64
3,"CC1CNCCN1C[C@H]1CN(c2ccc(C#N)n3nccc23)C[C@@H](C)O1 (single isomer, unassigned) [Example 50B]",52
4,"C[C@@H]1CN(c2ccc(C#N)n3nccc23)C[C@H](CN2CCC(N3CCN(C)CC3)CC2)O1 [Example 1, 4-[(2R,6S)-2-methyl-6-[[4-(4-methylpiperazin-1-yl)-1-piperidyl]methyl]morpholin-4-yl]pyrazolo[1,5-a]pyridine-7-carbonitrile]",28
5,"C[C@@H]1CN(c2ccc(C#N)n3nccc23)C[C@H](CN2CCC3(CCNCC3)CC2)O1 [Example 3, 4-[(2S,6R)-2-(3,9-diazaspiro[5.5]undecan-3-ylmethyl)-6-methyl-morpholin-4-yl]pyrazolo[1,5-a]pyridine-7-carbonitrile]",620
6,"C[C@@H]1CN(c2ccc(C#N)n3nccc23)C[C@H](CN2CCC(N3CCCCCC3)CC2)O1 [Example 4, 4-[(2S,6R)-2-[[4-(azepan-1-yl)-1-piperidyl]methyl]-6-methyl-morpholin-4-yl]pyrazolo[1,5-a]pyridine-7-carbonitrile]",26
7,"C[C@@H]1CN(c2ccc(C#N)n3nccc23)C[C@H](CN2CCNCC2)O1 [Example 5, 4-[(2R,6S)-2-methyl-6-(piperazin-1-ylmethyl)morpholin-4-yl]pyrazolo[1,5-a]pyridine-7-carbonitrile]",78
8,"C[C@@H]1CN(c2ccc(C#N)n3nccc23)C[C@H](CN2CCC3(CCNC3)C2)O1 (stereo partly drawn) [Example 6, 4-[(2S,6R)-2-(2,7-diazaspiro[4.4]nonan-2-ylmethyl)-6-methyl-morpholin-4-yl]pyrazolo[1,5-a]pyridine-7-carbonitrile]",140
9,"C[C@@H]1CN(c2ccc(C#N)n3nccc23)C[C@H](CNC2CCN(C)CC2)O1 [Example 7, 4-[(2R,6S)-2-methyl-6-[[(1-methyl-4-piperidyl)amino]methyl]morpholin-4-yl]pyrazolo[1,5-a]pyridine-7-carbonitrile]",320
10,"C[C@@H]1CN(c2ccc(C#N)n3nccc23)C[C@H](CN2CC3(CCCNC3)C2)O1 [Example 10, 4-[(2S,6R)-2-(2,8-diazaspiro[3.5]nonan-2-ylmethyl)-6-methyl-morpholin-4-yl]pyrazolo[1,5-a]pyridine-7-carbonitrile]",130
11,"C[C@@H]1CN(c2ccc(C#N)n3nccc23)C[C@H](CN2CC3(CC(N)C3)C2)O1 [Example 11, 4-[(2S,6R)-2-[(6-amino-2-azaspiro[3.3]heptan-2-yl)methyl]-6-methyl-morpholin-4-yl]pyrazolo[1,5-a]pyridine-7-carbonitrile]",930
12,"C[C@@H]1CN(c2ccc(C#N)n3nccc23)C[C@H](CN2CCC(CN)CC2)O1 [Example 12, 4-[(2S,6R)-2-[[4-(aminomethyl)-1-piperidyl]methyl]-6-methyl-morpholin-4-yl]pyrazolo[1,5-a]pyridine-7-carbonitrile]",280
13,"C[C@@H]1CN(c2ccc(C#N)n3nccc23)C[C@H](CN2CCC(CCN)CC2)O1 [Example 13, 4-[(2S,6R)-2-[[4-(2-aminoethyl)-1-piperidyl]methyl]-6-methyl-morpholin-4-yl]pyrazolo[1,5-a]pyridine-7-carbonitrile]",740
14,"C[C@@H]1CN(c2ccc(C#N)n3nccc23)C[C@H](CN2CCN(C(=O)CN)CC2)O1 [Example 14, 4-[(2S,6R)-2-[[4-(2-aminoacetyl)piperazin-1-yl]methyl]-6-methyl-morpholin-4-yl]pyrazolo[1,5-a]pyridine-7-carbonitrile]",380
15,"C[C@@H]1CN(c2ccc(C#N)n3nccc23)C[C@H](CN2CCN(C)CC2)O1 [Example 15, 4-[(2R,6S)-2-methyl-6-[(4-methylpiperazin-1-yl)methyl]morpholin-4-yl]pyrazolo[1,5-a]pyridine-7-carbonitrile]",180
16,"C[C@@H]1CN(c2ccc(C#N)n3nccc23)C[C@H](CN2CCC(N3CCCCC3)CC2)O1 [Example 16, 4-[(2R,6S)-2-methyl-6-[[4-(1-piperidyl)-1-piperidyl]methyl]morpholin-4-yl]pyrazolo[1,5-a]pyridine-7-carbonitrile]",19
17,"C[C@@H]1CN(c2ccc(C#N)n3nccc23)C[C@H](CN2CCC(N)CC2)O1 [Example 17, 4-[(2S,6R)-2-[(4-amino-1-piperidyl)methyl]-6-methyl-morpholin-4-yl]pyrazolo[1,5-a]pyridine-7-carbonitrile]",58
18,"C[C@@H]1CN(c2ccc(C#N)n3nccc23)C[C@H](CN2CCC3(CCNCC3)C2)O1 [Example 18, 4-[(2S,6R)-2-(2,8-diazaspiro[4.5]decan-2-ylmethyl)-6-methyl-morpholin-4-yl]pyrazolo[1,5-a]pyridine-7-carbonitrile]",350
19,"C[C@@H]1CN(c2ccc(C#N)n3nccc23)C[C@H](CN2CCC3(CCNC3)CC2)O1 [Example 19, 4-[(2S,6R)-2-(2,8-diazaspiro[4.5]decan-8-ylmethyl)-6-methyl-morpholin-4-yl]pyrazolo[1,5-a]pyridine-7-carbonitrile]",250
20,"C[C@@H]1CN(c2ccc(C#N)n3nccc23)C[C@H](CN2CC3(CCNC3)CC2=O)O1 (stereo partly drawn) [Example 20, 4-[(2R,6R)-2-methyl-6-[(3-oxo-2,7-diazaspiro[4.4]nonan-2-yl)methyl]morpholin-4-yl]pyrazolo[1,5-a]pyridine-7-carbonitrile]",610
21,"C[C@@H]1CN(c2ccc(C#N)n3nccc23)C[C@H](CN2CCC3(CCNC3)C2=O)O1 (stereo partly drawn) [Example 21, 4-[(2R,6R)-2-methyl-6-[(1-oxo-2,7-diazaspiro[4.4]nonan-2-yl)methyl]morpholin-4-yl]pyrazolo[1,5-a]pyridine-7-carbonitrile]",39
22,"C[C@@H]1CN(c2ccc(C#N)n3nccc23)C[C@H](CN2CC3CNCC3C2)O1 (stereo partly drawn) [Example 22, 4-[(2S,6R)-2-(2,3,3a,4,6,6a-hexahydro-1H-pyrrolo[3,4-c]pyrrol-5-ylmethyl)-6-methyl-morpholin-4-yl]pyrazolo[1,5-a]pyridine-7-carbonitrile]",69
23,"C[C@@H]1CN(c2ccc(C#N)n3nccc23)C[C@H](CN2CCCC3(CCCNC3)C2)O1 (stereo partly drawn) [Example 23, 4-[(2S,6R)-2-(2,8-diazaspiro[5.5]undecan-2-ylmethyl)-6-methyl-morpholin-4-yl]pyrazolo[1,5-a]pyridine-7-carbonitrile]",41
24,"C[C@@H]1CN(c2ccc(C#N)n3nccc23)C[C@H](CN2CC3(CCNCC3)C2)O1 [Example 24, 4-[(2S,6R)-2-(2,7-diazaspiro[3.5]nonan-2-ylmethyl)-6-methyl-morpholin-4-yl]pyrazolo[1,5-a]pyridine-7-carbonitrile]",610
25,"C[C@@H]1CN(c2ccc(C#N)n3nccc23)C[C@H](CN2CCC3(CCCNC3)C2)O1 (stereo partly drawn) [Example 25, 4-[(2S,6R)-2-(2,9-diazaspiro[4.5]decan-2-ylmethyl)-6-methyl-morpholin-4-yl]pyrazolo[1,5-a]pyridine-7-carbonitrile]",88
